Experimental data published in publication PMC6923176, “High-Throughput Screening of a 2-Keto-L-Gulonic Acid-Producing Gluconobacter oxydans Strain Based on Related Dehydrogenases” (Frontiers in Bioengineering and Biotechnology, 2019).

Experiments:
Assay in all cases: NADH consumption, A340
Type in all cases: biochemical
Settings in all cases: NAD(P)H-dependent reduction; co-substrate, pH and temperature of the Km series not given (unit definition: NADH, pH 7.0, 37 C)
[1] = target: T1, CFR-2KR (2-KLG reductase, 2kr) (Citrobacter freundii, UniProt A0A0P8I5D5)
T1 construct: gene ghrB; full length, His-tagged from pET28a(+), EcoRI/SalI, E. coli BL21(DE3), Ni-NTA
T1 sequence (A0A0P8I5D5 1-324): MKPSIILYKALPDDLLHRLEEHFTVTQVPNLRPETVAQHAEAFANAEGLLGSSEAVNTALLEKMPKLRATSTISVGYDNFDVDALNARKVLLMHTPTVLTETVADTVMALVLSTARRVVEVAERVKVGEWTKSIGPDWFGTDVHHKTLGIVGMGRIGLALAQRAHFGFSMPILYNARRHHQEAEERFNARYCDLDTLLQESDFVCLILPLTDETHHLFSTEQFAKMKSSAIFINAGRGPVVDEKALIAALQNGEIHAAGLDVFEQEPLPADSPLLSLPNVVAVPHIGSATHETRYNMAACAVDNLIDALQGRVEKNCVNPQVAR

[2] = target: T2, ANI-GLUD (2-KLG reductase, GLUD) (Aspergillus niger, UniProt A0A1D8RK43)
T2 construct: full length, synthetic gene without stop codon, BamHI/SalI in pET28a(+), His-tagged, E. coli BL21(DE3), Ni-NTA
T2 sequence (A0A1D8RK43 1-331): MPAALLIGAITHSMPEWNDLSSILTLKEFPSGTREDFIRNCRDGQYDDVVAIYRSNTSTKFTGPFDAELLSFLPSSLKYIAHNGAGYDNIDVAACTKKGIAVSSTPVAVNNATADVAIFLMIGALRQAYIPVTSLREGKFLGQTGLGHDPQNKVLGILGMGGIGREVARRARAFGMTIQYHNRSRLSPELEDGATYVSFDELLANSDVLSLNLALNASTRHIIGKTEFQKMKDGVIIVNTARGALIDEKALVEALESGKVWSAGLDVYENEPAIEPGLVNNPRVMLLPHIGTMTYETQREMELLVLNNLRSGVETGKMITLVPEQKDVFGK

[3] = target: T3, ANI-2KR (2-KLG reductase, 2kr) (Aspergillus niger, UniProt A2Q988)
T3 construct: gene An01g07030; full length, synthetic gene without stop codon, BamHI/SalI in pET28a(+), His-tagged, E. coli BL21(DE3), Ni-NTA
T3 sequence (A2Q988 1-339): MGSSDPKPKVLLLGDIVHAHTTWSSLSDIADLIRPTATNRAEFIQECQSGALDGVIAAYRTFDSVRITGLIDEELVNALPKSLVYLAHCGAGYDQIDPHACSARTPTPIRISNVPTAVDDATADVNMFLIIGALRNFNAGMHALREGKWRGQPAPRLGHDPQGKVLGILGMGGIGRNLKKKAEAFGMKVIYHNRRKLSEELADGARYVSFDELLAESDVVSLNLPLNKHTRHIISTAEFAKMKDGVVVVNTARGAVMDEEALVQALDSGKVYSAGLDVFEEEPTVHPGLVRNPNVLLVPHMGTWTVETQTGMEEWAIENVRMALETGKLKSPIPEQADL

Measured: Km

O=C(O)C(=O)[C@@H](O)[C@H](O)[C@@H](O)CO [2-KLG, 2-keto-L-gulonic acid]
Km and Vmax values for 2-KLG reductases: all assays above
